Data taken from US12370202B2, “Methods and compositions for inhibiting the NLRP3 inflammasome and/or LON protease” (TRITERPENOID THERAPEUTICS, INC., priority 2019, dated 2025).

Columns and labels:
5T33MM cells = test: MM cell proliferation (confluence), IncuCyte imaging; type: cell-based, murine; conditions: 72 hours
Procedure: FIG. 2 is a bar graph. CDDO-2P-Im inhibits proliferation of multiple myeloma cell line in vitro. 5T33MM, RPMI8226, and ARH77 cells were seeded in 96-well plates and incubated with CDDO-2P-Im (50 nM-150 nM). Confluence (cell proliferation) was measured using IncuCyte imaging after 72 hours. *p<0.01 compared to control.
FIG. 3 is a bar graph. […] Shown here are results for 5T33MM (50 nM TTX01/7.5 nM IXZ); RPMI8226 (100 nM TTX01/7.5 nM IXZ); and ARH77 (150 nM TTX01/10 nM IXZ). Confluence (cell proliferation) was measured using IncuCyte imaging after 72 hours.
To examine tumor-intrinsic effects of CDDO-2P-IM in the 5T33MM cell line and in human MM cells, conducted a series of in vitro studies was conducted. For these experiments, 96-well plates were first coated in poly-L-ornithine before cells were seeded (in triplicate), including the murine 5T33MM and the human RPMI8226, and ARH77 cell lines (15,000 cells per well). Cells were incubated in IncuCyte™ Live-Cell Analysis System for 72 hours (images were taken every 4 hours). To define dose-dependent effect of CDDO-2P-IM, cells were exposed to concentrations ranging from 50 nM to 150 nM. To examine potential synergy of CDDO-2P-IM with IXZ, MM cells were exposed to IXZ (7 nM-10 nM) either alone or in combination with CDDO-2P-IM.

LN227 = test: GBM cell growth (confluence), IncuCyte; type: cell-based, human; conditions: nanomolar concentrations
Procedure: FIG. 8 is a set of line graphs. CDDO-2P-Im suppresses growth of TMZ-resistant human GBM cells in vitro. […] Reduction in confluence is accompanied by the detachment and death of GBM cells. The data reveal that the relatively TMZ-resistant U-87MG is equivalent to LN227 in its sensitivity to CDDO-2P-Im.
To define the capacity of CDDO-2P-IM to suppress the growth and viability of GBM, several well-characterized human GBM cell lines (U251, U-87MG, LN227, Gli36Δ5), primary cultures of patient-derived GBM cells (UVM04, D028), and normal human astrocytes (provided by Dr. Arti Gaur, Dartmouth College) were utilized.
The activity of CDDO-2P-IM in cultures of human GBM was assessed and similar nanomolar (nM) potency was observed. […] These changes in confluence observed by Incucyte® corresponded with a reduction in cell viability. Doses of CDDO-2P-IM that result in complete cell death of the LN227, U251 and U-87MG cell lines had no effect on the viability of primary human astrocytes in vitro (not shown).

CCL2 = CCL2 expression in LPS-stimulated human macrophages, RT-qPCR; type: cell-based; conditions: 500 pM, 16 hours pretreatment, then 10 ng/ml LPS 24 hours
Procedure: FIG. 10 is a bar graph. CDDO-Me, CDDO-Im, CDDO-2P-Im, and CDDO-3P-Im inhibit expression of CCL2 in human macrophages at picomolar concentrations.
Human peripheral blood monocytes were isolated using CD14 magnetic beads and differentiated with 20 ng/ml M-CSF for with 5 days and pretreated or not with 300 nM CDDO-Me; 500 pM CDDO-Im; 500 pM CDDO-2p-Im; 500 pM CDDO-3p-Im for 16 hours, followed by stimulation with 10 ng/ml LPS for an additional 24 hours. Total RNA was extracted and analyzed by RT-qPCR (Tagman) for cytokine expression.

NLRP3 inflammasome = NLRP3 inflammasome activation in LPS-primed BMDM, IL-1β ELISA; type: cell-based, mouse
Procedure: FIG. 4A depicts an experimental design and FIG. 4B is a bar graph. Ixazomib (IXZ) potentiation of NLRP3 inflammasome activation inhibited by CDDO-2P-Im. Bone marrow derived macrophages (BMDM) were treated with Ixazomib (IXZ) and LPS (100 ng/ml) for 20 hours. Primed-BMDM were treated with CDDO-2P-Im (100 nM) for 15 min, followed by stimulation of ATP (5 mM) for 45 min. Supernatant were analyzed by ELISA for IL-1β release.
FIG. 6 is a set of bar graphs. CDDO-Im, CDDO-2P-Im (right panel), and CDDO-3P-Im (left panel) inhibit IL-1β production by NLRP3 inflammasome activation. LPS primed-BMDM were treated with different doses of CDDO-Im, CDDO-2P-Im, or CDDO-3P-Im for 15 min before ATP (5 mM) was added for 45 min. Supernatant were analyzed by ELISA for IL-1β.
To explore the potential that CDDO-2P-IM may enhance the MM response to proteasome inhibitors via inhibition of inflammasome activity, the effect of CDDO-2P-IM on activation of the NLRP3 complex (as defined by IL-1β production), in the presence or absence of IXZ in primary mouse bone marrow derived macrophages (BMDM) was evaluated. In the experiment, BMDM were primed by lipopolysaccharide (LPS) in the presence or absence of IXZ for 4 hours, followed by a brief ([…]) exposure to CDDO-2P-IM after which inflammasome activation was triggered by ATP.
The effects of the pyridyl derivatives of CDDO-IM, (specifically, CDDO-2P-Im and CDDO-3P-Im) on NLRP3 inflammasome activation were tested in mouse BMDMs. Cells were first primed with LPS for 4 hours, then pretreated with specific doses of either CDDO-Im, CDDO-2P-IM or CDDO-3P-Im (30-1000 nM) for 15 min before ATP was added for another 45 min. CDDO-Im and its pyridyl derivatives inhibited the amount of caspase-p10 (an auto-processed fragment of caspase-1) released into cell culture supernatants in a dose-dependent manner as measured by Western blot (FIG. 5). […] The effect on caspase-1 activation is specific for the NLRP3 inflammasome as the AIM2 inflammasome activation by poly(dA:dT) was not inhibited by the synthetic CDDO-Im derivatives (data not shown).

brain tumor cell lines = test: Radiation response of brain tumor cell lines in vitro; type: cell-based
NLRP3 = test: Mono-sodium urate (MSU)-induced peritonitis; type: in vivo, Mice; conditions: MSU crystals 1 mg/mouse i.p.; lavage four to sixteen hours later
Procedure: FIG. 7 is a bar graph. CDDO-Im, CDDO-2P-Im, and CDDO-3P-Im inhibit mono-sodium urate (MSU)-induced peritonitis. Peritoneal cavity IL-1β levels expressed as mean and SEM (n=6).
Mice received intraperitoneal (i.p.) injections of mono-sodium urate (MSU) crystals (1 mg/mouse) in the presence or absence of CDDO-Im, CDDO-2P-Im, or CDDO-3P-Im. Due to its particulate material, MSU crystals are potent activators of the NOD-like receptor NLRP3. Four to sixteen hours later a peritoneal lavage was conducted to collect supernatant from the peritoneal cavity.

CC1(C)CC[C@]2(C(=O)n3cnc(-c4ccccn4)c3)CC[C@]3(C)[C@H](C(=O)C=C4[C@@]5(C)C=C(C#N)C(=O)C(C)(C)[C@@H]5CC[C@]43C)[C@@H]2C1 [CDDO-2P-Im, 1-[2-Cyano-3,12-dioxooleana-1,9(11)-dien-28-oyl]-4(-pyridin-2-yl)-1H-imidazole]
proliferation (confluence), combination with IXZ (5T33MM cells; 50 nM TTX01/7.5 nM IXZ): act synergistically
proliferation (confluence), agent added alone (5T33MM cells; 50 nM TTX01 or 7.5 nM IXZ alone): only partially effective
proliferation (confluence) (5T33MM cells; 50 nM-150 nM): significant dose-dependent suppressive effects
confluence (growth) (LN227): dose-dependent reduction
expression of CCL2 (CCL2): inhibit
IL-1β release, IXZ potentiation of NLRP3 inflammasome activation (NLRP3 inflammasome; BMDM primed with IXZ and LPS, CDDO-2P-Im 100 nM 15 min before ATP (5 mM) 45 min): inhibited
NLRP3 inflammasome activation (IL-1β production) (NLRP3 inflammasome; BMDM primed with LPS in absence of IXZ, ATP trigger): direct suppression
IL-1β production by NLRP3 inflammasome activation (NLRP3 inflammasome; LPS primed BMDM, different doses (30-1000 nM) 15 min before ATP (5 mM) 45 min, ELISA): inhibit
radiation response (brain tumor cell lines): enhances radiation response
MSU-induced peritonitis (peritoneal cavity IL-1β levels) (NLRP3): inhibit
